{"source": "patent US12544372B2", "about": "“Methods of treating rheumatoid arthritis, chronic spontaneous urticaria, and systemic lupus erythematosis using an inhibitor of Bruton's tyrosine kinase” (Genentech, Inc., priority 2019, dated 2026)", "format_in_all_cases": "in vivo, human", "key": {"CRP": {"tested_on": "CRP", "assay": "RA study: CRP versus baseline", "protocol": "As used herein, “CRP” refers to C-reactive protein, or the blood test for inflammation in the body which measures C-reactive protein in the blood. CRP, a protein produced in the liver, will increase in concentration in the blood in response to inflammation. CRP may be measured by a “hsCRP” test, which measures high sensitivity CRP. In some embodiments, a positive result for elevated CRP is as measured by hsCRP ≥0.400 mg/dL hsCRP test. In other embodiments, a positive result for elevated CRP is as measured by a hsCRP ≥0.650 mg/dL hsCRP test. CRP tests are widely available from a variety of vendors (LabCorp, Quest Diagnostics, Life Line Screening, etc.).\n(§1) The specific components of the ACR Assessments used in this study are as follows: Tender/Painful Joint Count (68), Swollen Joint Count (66), Patient's Assessment of Arthritis Pain, Patient's Global Assessment of Arthritis, Physician's Global Assessment of Arthritis, CRP and HAQ-DI."}, "IL-6": {"tested_on": "IL-6", "assay": "RA study biomarker: IL-6 (immunoassay)", "protocol": "(§2) Biomarkers were evaluated in serum or plasma samples at baseline and weeks 1, 4, and 12 in patients with available samples (cohort 1: n=438; cohort 2: n=86). The biomarkers evaluated in this assessment were chemokine [C-C motif] ligand 4 (CCL4), IL-6, and TNF-like cytokine 1A (TL1A). Total IgM, IgG, rheumatoid factor IgM autoantibody (RF), CCL4, TL1A, IL-6, and anti-CCP autoantibody (ACPA IgG) levels were analyzed with immunoassays. CD19^+ B cells and CD3^+ T cells were measured by flow cytometry. The proportion of patients achieving an ACR50 response at week 12 and the change in DAS28 score by week 12 were assessed relative to seropositivity (RF and/or ACPA positive at baseline) or baseline levels of RF in both cohorts. To select which biomarkers to evaluate in this trial, BTK-dependent myeloid biomarkers were identified using peripheral blood CD14^+ monocytes stimulated with immune-complexes in the presence or absence of a BTK inhibitor. In brief, the expression levels of genes in human monocytes were assayed under conditions of no stimulation; with human serum albumin immune complex stimulation; with stimulation and a low concentration of a BTK inhibitor with similar characteristics to fenebrutinib; or with stimulation and a high concentration of the BTK inhibitor. […] Genes annotated with cytokine activity were selected. The color bar represents normalized gene expression."}, "[1]": {"tested_on": "patients with moderate to severe active rheumatoid arthritis", "assay": "Phase II RA study, Cohort 1 (inadequate response to MTX): clinical efficacy (ACR50, DAS28-3-CRP)", "details": "for DAS 28-3 (CRP) Adjusted Mean / DAS 28-3 (CRP) Difference (d): Week 12; for ACR50 Responders / ACR50 Weighted Difference vs Placebo: Week 12 Day 84; for DAS 28-3 (CRP) Difference (d): versus placebo", "excerpt": "A Two-Cohort Randomized Phase II, Double-Blind, Parallel Group Study in Patients with Active Rheumatoid Arthritis Evaluating the Efficacy and Safety of Fenebrutinib Compared with Placebo and Adalimumab in Patients with an Inadequate Response to Previous Methotrexate Therapy (Cohort 1) and Compared with Placebo in Patients with an Inadequate Response or Intolerance to Previous TNF Therapy (Cohort 2)\nThis study was designed to evaluate the efficacy and safety of fenebrutinib compared with placebo (Cohorts 1 and 2) and compared with adalimumab (ADA) (Cohort 1), each in combination with methotrexate (MTX), in patients with moderate to severe active rheumatoid arthritis (RA). Specific objectives and corresponding endpoints for the study are outlined below.\nThe study was a multicenter, Phase II, randomized, double-blind, placebo-controlled, active comparator (Cohort 1 only), parallel-group, dose-ranging study to evaluate the efficacy and safety of fenebrutinib in patients with moderate to severe active RA and an inadequate response to previous MTX therapy (Cohort 1) or MTX and TNF therapy who may have also had exposure to no more than one non-TNF inhibitor biologic (Cohort 2). Moderate to severe active RA was defined by ≥6 tender/painful joints on motion (68 joint count) and ≥6 swollen joints (66 joint count) at both screening and Day 1 (randomization), as well as a high sensitivity C-reactive protein (hsCRP)≥0. 400 mg/dL for Cohort 1 a hsCRP≥0.650 mg/dL for Cohort 2 at screening.\nThe study enrolled 578 patients. […] After a screening period of up to 28 days, patients in both cohorts received blinded study drug (oral fenebrutinib or matching placebo) for 12 weeks, after which they had the option to enter an 8 week follow-up period or enroll into an open-label extension (OLE) study. In addition to study drug, patients in Cohort 1 were also treated with subcutaneous (SC) comparatory drug (ADA or placebo).\nCohort 1 treatment regimens. […]\nDisease Activity Score 28. The DAS 28-4 (CRP) and the DAS 28-4 (ESR) are calculated as follows. Assessments: (i) Tender joint count of 28 joints (TJC28), square-root transformed; (ii) Swollen joint count of 28 joints (SJC28), square-root transformed; (iii) Acute-phase reactant (erythrocyte sedimentation rate [ESR mm/hr] or high sensitivity C-reactive protein [hsCRP mg/L]), log transformed; (iv) Patient's global assessment of disease activity on visual analog scale (0-100 mm).\nThe DAS 28 is calculated according to the following formulas: DAS 28(4)−ESR=0.56×SQRT(TJC28)+0.28SQRT(SJC28)+0.70×ln(ESR)+0.014×PtGA DAS 28(4)−CRP=0.56×SQRT(TJC28)+0.28SQRT(SJC28)+0.36×ln(CRP+1)+0.014×PtGA+0.96 • Total score: Range, 0.49-9.07 • Disease remission≤2.6 • Disease activity: Low≤3.2; Moderate d>3.2 and ≤5.1; High>5.1 (PtGA=patient's global assessment of disease activity; ln=natural logarithm; SQRT=square root)\nACR Assessments. The ACR's definition for calculating improvement in RA (ACR20) is calculated as a 20% improvement in tender and swollen joint counts and a 20% improvement in 3 of the 5 remaining ACR-core set measures: patient and physician global assessments, pain, disability, and an acute-phase reactant. Similarly, ACR50 and ACR70 are calculated with the respective percent improvements. The Sponsor, on the basis of the component parts, will calculate the ACR score.\nas §1"}, "[2]": {"tested_on": "Rheumatoid factor (RF) IgM autoantibody", "assay": "RA study biomarker: rheumatoid factor IgM autoantibody", "details": "for Rheumatoid factor (RF) IgM autoantibody levels: by Week 12 (92% placebo)", "protocol": "as §2"}}}
{"smiles": "C[C@H]1CN(C2COC2)CCN1c1ccc(Nc2cc(-c3ccnc(N4CCn5c(cc6c5CC(C)(C)C6)C4=O)c3CO)cn(C)c2=O)nc1", "note": "[fenebrutinib, (S)-2-(3′-(hydroxymethyl)-1-methyl-5-((5-(2-methyl-4-(oxetan-3-yl)piperazin-1-yl)pyridin-2-yl)amino)-6-oxo-1,6-dihydro-[3,4′-bipyridin]-2′-yl)-7,7-dimethyl-2,3,4,6,7,8-hexahydro-1H-cyclopenta[4,5]pyrrolo[1,2-a]pyrazin-1-one]", "values": [{"measurement": "CRP, % of BL CRP", "setting": "CRP; Cohort 1, 200 mg BID, Week 8 and Week 12", "result": 59, "unit": "%"}, {"measurement": "CRP levels", "setting": "CRP; Cohort 2, Week 8 and Week 12", "result": "reduced CRP levels"}, {"measurement": "IL-6 reduction relative to placebo", "setting": "IL-6; Cohort 1, by week 12", "result": "not observed"}, {"measurement": "IL-6 levels relative to placebo", "setting": "IL-6; cohort 2, 200 mg twice daily, by week 12", "result": "−50", "unit": "%"}, {"measurement": "DAS 28-3 (CRP) Adjusted Mean", "setting": "[1]; Cohort 1, 50 mg QD", "result": "−1.54"}, {"measurement": "ACR50 Responders", "setting": "[1]; Cohort 1, 50 mg QD", "result": "7 (17.5%)"}, {"measurement": "ACR50 Weighted Difference vs Placebo", "setting": "[1]; Cohort 1, 50 mg QD", "result": 8.00}, {"measurement": "DAS 28-3 (CRP) Adjusted Mean", "setting": "[1]; Cohort 1, 150 mg QD", "result": "−1.74"}, {"measurement": "ACR50 Responders", "setting": "[1]; Cohort 1, 150 mg QD", "result": "30 (27.5%)"}, {"measurement": "ACR50 Weighted Difference vs Placebo", "setting": "[1]; Cohort 1, 150 mg QD", "result": 12.93}, {"measurement": "DAS 28-3 (CRP) Difference (d)", "setting": "[1]; Cohort 1, 50 mg QD", "result": "−0.36"}, {"measurement": "DAS 28-3 (CRP) Difference (d)", "setting": "[1]; Cohort 1, 150 mg QD", "result": "−0.57"}, {"measurement": "Rheumatoid factor (RF) IgM autoantibody levels", "setting": "[2]; 150 mg QD arm", "result": 66, "unit": "%"}, {"measurement": "Rheumatoid factor (RF) IgM autoantibody levels", "setting": "[2]; 200 mg BID arm", "result": 64, "unit": "%"}, {"measurement": "RF IgM median reduction relative to placebo", "setting": "[2]; cohort 1, 200 mg twice daily, by week 12", "result": "−29", "unit": "%"}]}
